Measured values as given in patent US8597904B2, “Pharmaceutical compositions for the treatment of conditions responsive to proteasome inhibition” (priority 2007, dated 2013).

What was measured:
[1] = test system: cells colonized by powdery mildew in wheat; conditions: literature (Amrein 2004; Waspi 1998-2001); cited from earlier work
SKOV3 cells = assay: sulphorhodamine B (SRB) cell viability / proliferation assay; assay type: cell-based, human
Text: The mammalian cell lines used to test the effects of syringolin A were human neuroblastoma (NB) cells with either wild type p53 (line SK-N-SH, provided by the American Type Culture Collection [ATCC], Manassas, Va.; Davidoff, et al. 1992. Oncogene 7:127-133; McKenzie, et al. 1999. Clin. Cancer Res. 5:4199-4207; Tweddle, et al. 2001. Am. J. Pathol. 158:2067-2077), mutant p53 (line LAN-1, cysteine to stop codon at residue 182, provided by Dr. Robert Seeger, University of California, Los Angeles, Calif.; Davidoff, et al. 1992. Oncogene 7:127-133; Tweddle, et al. 2001. Cancer Res. 61:8-13; Tweddle, et al. 2003. […] Cells were seeded 18-24 hours before GlbA or SylA treatment and analyzed after 24 and/or 48 hours. Cell numbers were determined using a haemacytometer in the presence of trypan blue (Fisher Scientific, Pittsburgh, Pa.).
To then test the effects of syringolin A on proliferation, cells at 0.25-0.5×10^5 cells per ml were seeded in 96-well microtiter plates containing 100 μl of culture medium per well. […] Cells were incubated for 48 hours, photographed, and the viability of cells (calculated as a percentage of control cell counts) was determined using the sulphorhodamine B (SRB) assay as previously reported (Skehan, et al. 1990. J. Natl. Cancer Inst. 82:1107-1112, which is incorporated herein by reference in its entirety). […]

**Q.** For CC(C)[C@H](NC(=O)N[C@H](C(=O)N[C@H]1/C=C/CCNC(=O)/C=C/[C@H](C(C)C)NC1=O)C(C)C)C(=O)O [syringolin A], which hypersensitive cell death [1] is on record?
**A.** induce hypersensitive death of cells colonized by powdery mildew in wheat

**Q.** And the cell morphology (SKOV3 cells; SKOV3, 25 μM, no detachment or floating cells)?
**A.** affected the cell morphology

**Q.** And the cell proliferation rate (SKOV3 cells; SKOV3, dose-dependent)?
**A.** reduced the cell proliferation rate
